Test results as given in patent publication US8557864B2, “Agent having neurotrophic factor-like activity” (Nagoya Industrial Science Research Institute, priority 2007, dated 2013).

Each compound was assayed on MAP kinases (assay: Measurement of activation of MAP kinases in cultured nerve cells (western immunoblotting)). Settings: fetal rat cerebral cortex nerve cells, compound 500 μg/ml, 30 minutes, relative to control.
Format: cell-based
Protocol: Activation of MAP kinases was measured on respective compounds in Table 1 including the compound obtained in Production Example with western immunoblotting as follows. Nerve cells were dispersed from a cerebral cortex of a 17-day-old fetal rat and the nerve cells were cultured in a Dulbecco's modified eagle medium (DMEM) containing 5%; fetal bovine serum for 1 day. A culture solution was exchanged to a serum-free medium (B27 supplement added Neurobasal, Invitrogen Corporation), and the nerve cells were cultured in a culture petri dish coated with polyornithine at a density of 20,000 to 40,000 cells/cm^2. Three days later, each of the compounds in Table 1 was added thereto, and culture for 30 minutes was continued. Then, cells were recovered on ice with a solution of a Tris-HCL buffer as a base containing a phosphatase inhibitor. The protein concentration of the obtained cell extraction was determined using a BCA Protein Assay Kit (TAKARABIO INC.), a constant amount (3 μg for MAP kinase measurement, 5 μg for phosphorylated MAP kinase measurement) of the protein was electrophoresed with a polyacrylic amide gel. The protein was transcribed to a PVDF membrane from the gel after electrophoresis, and western immunoblotting was carried out using the primary antibodies: an anti-MAP kinase antibody (Cell Signaling Technology, Inc.) and an antiphosphorylated MAP kinase antibody (Cell Signaling Technology, Inc.), respectively. Subsequently, an enzyme activity was subjected to color development by being reacted with the secondary antibody: an alkaline phosphatase labeled anti-rabbit IgG antibody (Promega KK) to measure MAP kinases and phosphorylated MAP kinases. In addition, each compound was dissolved in 0.7% DMSO and adjusted to have a concentration of 500 μg/ml. A control was added with a phosphoric acid buffer containing 0.1% DMSO in the same amount as the compound.
The above obtained concentration measurement of the electrophoresis gel band was digitalized by calculating an intensity with Image J (BioArts International, Inc.). The numerical value of MAP kinases of each compound was divided by the numerical value of the control's MAP kinases, and the numerical value of phosphorylated MAP kinases of each compound was divided by the numerical value of the control's phosphorylated MAP kinases to find a ratio of the MAP kinases of each compound to the control and a ratio of the phosphorylated MAP kinases of the each compound to the control. Then, the obtained ratio of the phosphorylated MAP kinases to the control was divided by the obtained ratio of the MAP kinases to the control to find a ratio of the phosphorylated MAP kinases to the MAP kinases and graphs were formed and shown in FIGS. 1 to 3. Compound 1, compound 6, compound 11, compound 16, compound 21 and compound 36 in Table 1 were used from products made by Wako Pure Chemical Industries, Ltd.

SMILES | ratio of phosphorylated MAP kinases to MAP kinases
CCCCCCCCCC(=O)OC [Compound 2, decanoic acid methyl ester] | high activities
CCCCCCCCCC(=O)OCC [Compound 3, decanoic acid ethyl ester] | high activities
CCCCCCC/C=C/C(=O)O [Compound 6, trans-2-decenoic acid] | high activities
CCCCCCC/C=C/C(=O)OC [Compound 7, trans-2-decenoic acid methyl ester] | twice or more
C=CCCCCCCCC(=O)OC [Compound 12, trans-9-decenoic acid methyl ester] | high activities
C=CCCCCCCCC(=O)OCC [Compound 13, trans-9-decenoic acid ethyl ester] | high activities
C=CCCCCCCCCC(=O)OC [Compound 22, trans-10-undecenoic acid methyl ester] | high activities
C=CCCCCCCCCC(=O)OCC [Compound 23, trans-10-undecenoic acid ethyl ester] | high activities
CCCCCCC/C=C/COC(=O)/C=C/CCCCCCC [Compound 47, trans-2-decenoic acid-trans-2-decenyl ester] | twice or more
CCCCCCC/C=C/C(=O)OC1CCCCC1 [Compound 48, trans-2-decenoic acid cyclohexyl ester] | twice or more
CCCCCCC/C=C/C(=O)OCCCCCCCC [Compound 53, trans-2-decenoic acid octyl ester] | twice or more
CCCCCCC/C=C/C(=O)OC(C)C [Compound 54, trans-2-decenoic acid isopropyl ester] | twice or more
CCOC(=O)/C=C(\C)CCC=C(C)C [Compound 77, geranic acid ethyl ester] | high activities
CCOC(=O)CC(C)CCCC(C)C (stereo not drawn) [Compound 78, 3,7-dimethyloctanoic acid ethyl ester] | high activities

Same assay, conditions: fetal rat cerebral cortex nerve cells, compound 500 μg/ml, 30 minutes, relative to control; listed as trans-2-decenic acid methyl ester

SMILES | ratio of phosphorylated MAP kinases to MAP kinases [times]
CCCCCCC/C=C/C(=O)OC [Compound 7, trans-2-decenoic acid methyl ester] | 6

Each compound was assayed on mice under chronic mild stress (assay: Tail suspension test comparing compound 8 and fluvoxamine after chronic mild stress). Settings: Exp. 2 (1 week after stress); compound 8 500 μg/kg, fluvoxamine 1000 μg/kg intraperitoneally once per day.
Format: in vivo
Protocol: 7-week-old male ddY strain mice fed in one cage for 4 mice were first subjected to forced swimming for 15 minutes in the same manner as stress in Example 2 (behavior test of mice under stress) (1) described in the paragraph [0063] in the specification. Then, stress for 1 week using 3 kinds of cages was regarded as 1 cycle, and the stress was applied for 3 cycles (3 weeks) and chronic mild stress (CMS) was applied. The compound 8 and fluvoxamine were administered to mice immediately after stress in Exp. 1, 1 week after stress in Exp. 2, and 2 weeks after stress in Exp. 3, respectively, and tail suspension tests were carried out on the respective test groups. In each test group, the compound 8 was adjusted in concentration so as to have each of the doses of […] and fluvoxamine was adjusted in concentration so as to have a dose of 1000 μg/kg, by dissolving in 0.1% DMSO, and each dose of the compound 8 and fluvoxamine were intraperitoneally injected to mice once per day from the time immediately after stress. Further, to 7-week-old male ddY strain mice fed in one cage for 4 mice without stress, the compound 8 and fluvoxamine were administered to carry out the tail suspension tests in the same manner as the stressed mice. FIG. 31 show the result. A significance test was performed in a Student's t-test (*). […] “DAEE” denotes the compound 8 and “Flu” denotes fluvoxamine.

SMILES | effect on depressive symptom (immobility time)
COCCCC/C(=N\OCCN)c1ccc(C(F)(F)F)cc1 [fluvoxamine] | an effect could not be recognized

Same assay, conditions: Exp. 3 (2 weeks after stress); fluvoxamine 1000 μg/kg intraperitoneally once per day

SMILES | effect on depressive symptom (immobility time)
COCCCC/C(=N\OCCN)c1ccc(C(F)(F)F)cc1 [fluvoxamine] | recognized only in Exp. 3

Each compound was assayed on mice (assay: Voluntary alternation behavior test (Y-maze test) of mice administered with trimethyltin). Settings: TMT 2 mg/kg weight intraperitoneally.
Format: in vivo
Protocol: The voluntary alternation behavior test (Y-maze test) is one kind of a behavior test using a Y-shaped maze constituted with three arms. First, a mouse is placed on the tip of one arm out of the three arms, letting the mouse freely explore in the maze over 8 minutes, and arms where the mouse transferred are recorded in order. Then, the number of times of transferring to each arm (total arm selection number (total arm entries)) and the number of sequentially selecting three different arms (number of alternation behavior (number of spontaneous behavior)) are counted.
Trimethyltin (hereinafter referred to as “TMT”) is an organic metal compound having neurotoxicity, and acute nerve cell death is cased particularly in granular nerve cells of the hippocampus dentate gyrus, which thus affects memory and learning abilities of a mouse.
The voluntary alternation tests (Y-maze tests) were performed on 1) test groups to which the compound 8 was singly administered and 2) test groups to which TMT and the compound 8 were administered. In the test groups to which the compound 8 was singly administered, the compound 8 was dissolved in 0.1% DMSO to adjust a concentration so as to have each of the doses of 100 and 500 μg/kg and intraperitoneally injected to 6 mice in every administration example each in a dose of 0.25 mL. In 0 μg/kg weight administration examples of controls, 0.25 mL of a phosphoric acid buffer containing 0.1% DMSO was intraperitoneally injected in each time. The voluntary alternation tests (Y-maze tests) were performed on each of the administration groups after the elapse of 2 hours from intraperitoneal administration. In the test group in which TMT and the compound 8 were administered, TMT (2 mg/kg weight) was intraperitoneally administered to a mouse, and the compound 8 was intraperitoneally administered in the same manner as the test groups in which the compound 8 was singly administered after 2 days have passed, and the voluntary alternation test (Y-maze test) was performed after the elapse of 2 hours. FIG. 32 show the results. Significance tests were performed in a Turkey's test (*, ##) and a Student's t-test (++). “DAEE” denotes the compound 8.

SMILES | voluntary alternation behavior after TMT treatment
[CH3][Sn+]([CH3])[CH3] [TMT, Trimethyltin, reference compound] | significantly decreased
